For one test, the system named is TDP-43 aggregation. The test can be described thus: TDP-43 aggregation assay in SY5Y TDP-43WT cells (high content imaging). Type of test: cell-based. The settings on record: Homo sapiens, tetracycline induction 24 hrs, 1 hour compound pre-treatment, sodium arsenite 23 hrs, 8-point dose curve, percentage of cells with TDP-43 aggregates, read-out: IC50, Inhibition of TDP-43 Aggregation. Put shortly:
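Tetracycline-inducible eGFP-tagged wild-type human TDP-43 in SH-SY5Y cells, induced 24 h ([…]), compound pre-treated 1 h, then sodium arsenite […] for 23 h. Fixed cells imaged; percentage of DAPI-counted cells with aggregates gives IC50 from 8-point curves.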

In a further test the test system is tau stress granules. The test can be described thus: SY5Y-tT1 tau arsenite assay (tau stress granules per cell). The format is cell-based. The note with it: SY5Y-tT1 cells, 2 hours compound, 90 minutes arsenite, 50% reduction of granules per cell, read-out: IC50, Inhibitor Activity of Tau Stress Granules. As for the experimental part:
Example 91: In Vitro Efficacy Assay of Exemplary Compounds—SY5Y-tT1 Tau Arsenite/Thapsigargin Assay
• Before harvesting cells—checked to see if cells are ~80% confluency in their flask • 1. Aspirated growth media from flask. • 2. Added 4 mL of (0.25%) trypsin-EDTA (REF: 25200-056) • 3. Placed in 37° C. incubator for 5 minutes. • 4. Removed from incubator and added 11 mL growth media, washing any remaining cells adhered to the bottom of the flask. • 5. Transferred cell containing media to a 50 mL conical tube and spun for 5 minutes at 800 rpm. • 6. Aspirated supernatant and added 5 mL of growth media to cell pellet, triturating to make a homogenous cell solution. • 7. After counting cells, followed one of these plating paradigms: • (A) If treating with arsenite, plated cells at […] with tetracycline solution (5 mg/mL) added to cell solution at 1:5000 • (B) If treating with thapsigargin, plated cells at 4,000 cells/well with tetracycline solution (5 mg/mL) added to cell solution at 1:5000 • 8. Incubated at 37° C. for 48 hours.
• Solubilized all compounds to 10 mM prior to making dilution plates • 1. To a 96-well U-bottom plate (Falcon Non-Tissue Culture Treated Plates REF: 351177) added 120 μL growth media to all 96 wells, with an additional 58.2 μL to row A. • 2. Added 1.8 μL of 10 mM compound stock to wells A1-11, adding 1.8 μL of 10 mM PERKi stock (Selleck Chemistry GSK2606414 Cat No. S7307) as the control. • 3. Serially diluted 60 μL from row A down through each row, finishing with 180 μL total volume in row H. • 4. Transferred 12.5 μL of each dilution plate well to the correlating wells in cell plate, being careful not to touch cells adhered to bottom of the plate. • 5. Incubated for 2 hours.
• 1. Added 720 μL of 0.05 M sodium arsenite solution (CAS #: 7784-46-5) to 10 mL of growth media for a final concentration of […] arsenite solution, mix well. • 2. Added 12.5 μL of arsenite solution to all wells of compounds treated plate intended for arsenite treatment. • 3. Incubated at 37° C. for 90 minutes.
• Before beginning this part of the protocol: • Made 1×PBS by diluting 10× stock (10×, Phosphate buffered saline, Fisher #BP399— • 4) in sterile deionized water. • Diluted paraformaldehyde (16% Paraformaldehyde solution, Electron Microscopy Sciences #15710-S) to 4% in 1×PBS. • Diluted Hoechst stain (Life Technologies #H3570) 1:10,000 in 1×PBS (1 μL Hoechst per 10 mL 1×PBS). • Both solutions were protected from light. • 1) After compound treatment, aspirated media from cell plates and gently added in 50 μL of 4% paraformaldehyde for 10 min protected from light at room temperature. • 2) Aspirated paraformaldehyde solution and gently added 50 μL of 1:10,000 Hoechst solution to each well and incubated for 10 min protected from light at room temperature. • 3) Aspirated Hoechst solution and gently added 100 μL 1×PBS. Cover the plate with aluminum film (VWR #60941-126). • 4) Stored at 4° C. or used immediately for imaging on ThermoFisher CX7 imager.
Exemplary compounds of the disclosed herein were evaluated for efficacy for inhibitor activity of tau stress granules in the arsenite assay and quantified as drug concentration providing a 50% reduction (IC50) of granules per cell is shown in Table 4.
In Table 4 below, A indicates an IC50 (μM)<0.5 μM, B indicates an IC50 (μM) 0.5 μM to <1 μM, C indicates an IC50 (μM) 1 μM to <2 μM, and D indicates an IC50 (μM) 2 μM to <6 μM.

A value given as a limit tells only on which side of the number the result lay.

The IC50 is the point on the concentration scale where inhibition reaches its midpoint.

For `Cc1cc(-c2ccc(C3CCN(C)CC3)c(F)c2)sc1C(=O)N1CC[C@H](N)C1` [Compound 136, (S)-(3-aminopyrrolidin-1-yl)(5-(3-fluoro-4-(1-methylpiperidin-4-yl)phenyl)-3-methylthiophen-2-yl)methanone], the 50% inhibitory concentration (IC50) in the test on TDP-43 aggregation and with tau stress granules was < 500 nM in each case. For `Cc1cc(-c2ccc(C3CCN(C)CC3)cc2)sc1C(=O)N1CC[C@H](N)C1` [Compound 201, (S)-(3-aminopyrrolidin-1-yl)(3-methyl-5-(4-(1-methylpiperidin-4-yl)phenyl)thiophen-2-yl)methanone], the IC50 in the test on TDP-43 aggregation and in the test with tau stress granules was < 500 nM throughout. `Cc1cc(-c2ccc(C(C)N(C)C)cc2)sc1C(=O)N1CC[C@H](N)C1` (stereo partly drawn) [Compound 200, ((S)-3-aminopyrrolidin-1-yl)(5-(4-(1-(dimethylamino)ethyl)phenyl)-3-methylthiophen-2-yl)methanone]: the 50% inhibitory concentration (IC50) in the test on TDP-43 aggregation was < 500 nM; with tau stress granules it was 2000 to 6000 nM. The corresponding values for `Cc1cc(-c2ccc(C3CCN(CC4CCCOC4)CC3)cc2)sc1C(=O)N1CC[C@H](N)C1` (stereo partly drawn) [Compound 139, ((S)-3-aminopyrrolidin-1-yl)(3-methyl-5-(4-(1-((tetrahydro-2H-pyran-3-yl)methyl)piperidin-4-yl)phenyl)thiophen-2-yl)methanone] are < 500 nM and 500 to 1000 nM. Take `COCCN1CCC(c2ccc(-c3cc(C)c(C(=O)N4CC[C@H](N)C4)s3)cc2)CC1` [Compound 142, (S)-(3-aminopyrrolidin-1-yl)(5-(4-(1-(2-methoxyethyl)piperidin-4-yl)phenyl)-3-methylthiophen-2-yl)methanone]: the IC50 with TDP-43 aggregation was < 500 nM; in the test on tau stress granules it was 500 to 1000 nM. The corresponding values for `COCCCN1CCC(c2ccc(-c3cc(C)c(C(=O)N4CC[C@H](N)C4)s3)cc2)CC1` [Compound 141, (S)-(3-aminopyrrolidin-1-yl)(5-(4-(1-(3-methoxypropyl)piperidin-4-yl)phenyl)-3-methylthiophen-2-yl)methanone] are < 500 nM and 500 to 1000 nM. As for `Cc1cc(-c2ccc(C3CCN(C4CCOCC4)CC3)cc2)sc1C(=O)N1CC[C@H](N)C1` [Compound 178, (S)-(3-aminopyrrolidin-1-yl)(3-methyl-5-(4-(1-(tetrahydro-2H-pyran-4-yl)piperidin-4-yl)phenyl)thiophen-2-yl)methanone], the 50% inhibitory concentration (IC50) in the test with TDP-43 aggregation and in the test on tau stress granules was < 500 nM in each case.

For `Cc1cc(-c2ccc(C3CCN(C4CCCC4)CC3)cc2)sc1C(=O)N1CC[C@H](N)C1` [Compound 180, (S)-(3-aminopyrrolidin-1-yl)(5-(4-(1-cyclopentylpiperidin-4-yl)phenyl)-3-methylthiophen-2-yl)methanone], the IC50 in the test on TDP-43 aggregation and in the test on tau stress granules was < 500 nM each time.

Turning to `CCN1CCN(c2ccc(-c3cc(C)c(C(=O)N4CC[C@H](N)C4)s3)cc2)CC1` [Compound 155, (S)-(3-aminopyrrolidin-1-yl)(5-(4-(4-ethylpiperazin-1-yl)phenyl)-3-methylthiophen-2-yl)methanone], the IC50 in the test with TDP-43 aggregation was < 500 nM; with tau stress granules, 500 to 1000 nM. With `Cc1cc(-c2ccc(C3CCN(C4CCCCC4)CC3)cc2)sc1C(=O)N1CC[C@H](N)C1` [Compound 179, (S)-(3-aminopyrrolidin-1-yl)(5-(4-(1-cyclohexylpiperidin-4-yl)phenyl)-3-methylthiophen-2-yl)methanone], the IC50 in the test with TDP-43 aggregation is < 500 nM; in the test on tau stress granules it was 500 to 1000 nM. In the case of `Cc1cc(-c2ccc(C3CCN(C4CCSCC4)CC3)cc2)sc1C(=O)N1CC[C@H](N)C1` [Compound 167, (S)-(3-aminopyrrolidin-1-yl)(3-methyl-5-(4-(1-(tetrahydro-2H-thiopyran-4-yl)piperidin-4-yl)phenyl)thiophen-2-yl)methanone], in the test on tau stress granules, the IC50 lay in the range of 1000 to 2000 nM. With `Cc1cc(-c2ccc(C3CCN(C4CCS(=O)(=O)CC4)CC3)cc2)sc1C(=O)N1CC[C@H](N)C1` [Compound 156, (S)-(3-aminopyrrolidin-1-yl)(5-(4-(1-(1,1-dioxidotetrahydro-2H-thiopyran-4-yl)piperidin-4-yl)phenyl)-3-methylthiophen-2-yl)methanone], the IC50 in the test on TDP-43 aggregation and in the test with tau stress granules was < 500 nM in each case. Regarding `Cc1cc(-c2ccc(N3CCN(C(C)C)CC3)cc2)sc1C(=O)N1CC[C@H](N)C1` [Compound 159, (S)-(3-aminopyrrolidin-1-yl)(5-(4-(4-isopropylpiperazin-1-yl)phenyl)-3-methylthiophen-2-yl)methanone], the IC50 in the test with tau stress granules was in the range of 500 to 1000 nM. As to `Cc1cc(-c2ccc(N3CCN(C4CCCC4)CC3)cc2)sc1C(=O)N1CC[C@H](N)C1` [Compound 153, (S)-(3-aminopyrrolidin-1-yl)(5-(4-(4-cyclopentylpiperazin-1-yl)phenyl)-3-methylthiophen-2-yl)methanone], the half-maximal inhibitory concentration (IC50) with tau stress granules was 1000 to 2000 nM.

For the compound `COc1cc(-c2cc(C)c(C(=O)N3CC[C@H](N)C3)s2)ccc1C1CCN(C)CC1` [Compound 111, (S)-(3-aminopyrrolidin-1-yl)(5-(3-methoxy-4-(1-methylpiperidin-4-yl)phenyl)-3-methylthiophen-2-yl)methanone], the IC50 with tau stress granules lay within 2000 to 6000 nM. Consider `Cc1cc(-c2ccc(C3CCN(C4CCC4)CC3)cc2)sc1C(=O)N1CC[C@H](N)C1` [Compound 181, (S)-(3-aminopyrrolidin-1-yl)(5-(4-(1-cyclobutylpiperidin-4-yl)phenyl)-3-methylthiophen-2-yl)methanone], for which the IC50 with TDP-43 aggregation is < 500 nM; in the test on tau stress granules, 500 to 1000 nM. The corresponding values for `Cc1cc(-c2ccc3c(c2)CNCC3)sc1C(=O)N1CC[C@H](N)C1` [Compound 198, (S)-(3-aminopyrrolidin-1-yl)(3-methyl-5-(1,2,3,4-tetrahydroisoquinolin-7-yl)thiophen-2-yl)methanone] are < 500 nM and 2000 to 6000 nM. For the compound `CCCN1CCC(c2ccc(-c3cc(C)c(C(=O)N4CC[C@H](N)C4)s3)cc2)CC1` [Compound 182, (S)-(3-aminopyrrolidin-1-yl)(3-methyl-5-(4-(1-propylpiperidin-4-yl)phenyl)thiophen-2-yl)methanone], the concentration for half-maximal inhibition (IC50) in the test on TDP-43 aggregation and with tau stress granules was < 500 nM in each case. For `Cc1cc(-c2ccc3c(c2)CCNC3)sc1C(=O)N1CC[C@H](N)C1` [Compound 199, (S)-(3-aminopyrrolidin-1-yl)(3-methyl-5-(1,2,3,4-tetrahydroisoquinolin-6-yl)thiophen-2-yl)methanone], the concentration for half-maximal inhibition (IC50) was < 500 nM in the test on TDP-43 aggregation and 2000 to 6000 nM with tau stress granules.

For the compound `Cc1cc(-c2cc(C)c(C(=O)N3CC[C@H](N)C3)s2)ccc1C1CCNCC1` [Compound 149, (S)-(3-aminopyrrolidin-1-yl)(3-methyl-5-(3-methyl-4-(piperidin-4-yl)phenyl)thiophen-2-yl)methanone], in the test with tau stress granules, the IC50 was < 500 nM. On the same count and under the same terms, to `Cc1cc(C2CCN(C)CC2)ccc1-c1cc(C)c(C(=O)N2CC[C@H](N)C2)s1` [Compound 134, (S)-(3-aminopyrrolidin-1-yl)(3-methyl-5-(2-methyl-4-(1-methylpiperidin-4-yl)phenyl)thiophen-2-yl)methanone] belongs 2000 to 6000 nM.

The values above are taken from patent US20260258025A1, “INHIBITORS OF TDP-43 AND TAU AGGREGATION” (Aquinnah Pharmaceuticals, inc., priority 2023, published 2026).
